How the values were obtained:
ß-catenin (ß-cat) = test: Phosphoproteomics in rat primary cortical neurons, ß-cat; format: cell-based; conditions: 1 μM KP
Protocol: Cultured rat primary cortical neurons were treated with either vehicle DMSO (0.1%) or 1 μM KP for 1 h/24 h. Cells were lysed in non-detergent-containing buffer (Tris.Cl pH8 50 mM, NaCl 150 mM, 0.5% Phosphatase Inhibitor (Pierce #88667) and Protease Inhibitor (Roche #11836153001)). 500 μL was removed and solid urea was added to a final concentration of 8M. Samples were sonicated for further solubilization. After clearing of insoluble material by centrifugation, protein concentration was measured by Bradford assay. 250 μg of total protein was removed from each sample and solubilization buffer was added to normalize all samples to 0.93 μg/μL protein. Samples were then spiked with bovine alpha-casein to 30 fmol/μg of total protein. Samples were reduced with 10 mM DTT at 32° C. for 45 min and then alkylated with 20 mM iodoacetamide at room temperature for 30 min. […]
TiO2 Enrichment. […] After cleanup using a C18 STAGE tip, and resuspension in 2% acetonitrile, 0.1% TFA, 10 mM citric acid samples were quantified.
Quantitative analysis of Phosphopeptide Enriched Samples. Quantitative LC-MS/MS was performed in singlicate (4 uL=33% of the total sample each injection) for phosphopeptide-enriched samples using a nanoAcquity UPLC system (Waters Corp) coupled to a Thermo QExactive Plus high resolution accurate mass tandem mass spectrometer (Thermo) via a nanoelectrospray ionization source. […]

synaptophysin = test: Immuno-cytochemistry morphometry of primary human cortical neurons, synaptophysin; format: cell-based; conditions: 400 nM KP
Protocol: The neuron-enriched cultures were established from fetal cortical specimens at 15-20 weeks of gestation. The protocols for tissue processing complied with all federal and institutional guidelines. The cultures were plated on PEI (polyethyleneimine solution) substrate and maintained in Neurobasal media supplemented with B27 as previously described (Pelsman et al., 2003, International journal of developmental neuroscience 21:117-124; Yeo et al., 2013, Proc Natl Acad Sci USA 110:4315-4320).
For immunostaining, the cultures were treated for 2-4 days with vehicle or 400 nM KP, fixed with 4% PFA at day 10, and processed for double-staining with anti-KCC2 and anti-synaptophysin or anti-NeuN (see Table 1).
The 0.34 micrometer confocal slices through entire cell layers at different optical fields (n=17-28 for each group) of the fixated cultures were acquired using a Zeiss LSM700 confocal microscope.
Image Z-stacks were analyzed using Imaris 9.2.1 software. Optical density intensity sum values for each stack/channel were divided by corresponding data volumes and the resulting values were normalized to the number of specifically labeled cells within each stack. There were no significant differences in the number of cells between vehicle and KP-treated groups.

SMILES: O=C1Cc2c([nH]c3ccc(Br)cc23)-c2ccccc2N1 [kenpaullone, 9-bromo-7,12-dihydro-indolo [3,2-d] [1]benzazepin-6(5H)-one]
- differential phosphorylation of ß-cat (ß-catenin (ß-cat)): not significantly differentially phosphorylated
- increased synaptophysin expression relative to vehicle (synaptophysin): 54%
